Literature values as cited in patent US20100055067A1, “PERFLUOROCARBON CONJUGATE AS A BLOOD SUBSTITUTE” (SNU R&DB Foundation, priority 2008, published 2010).
Read-outs that look alike come from different tables or passages of the source.

What was measured:
[1] = relatively low boiling point

FC(F)(F)C(F)(F)C(F)(F)C(F)(F)N(C(F)(F)C(F)(F)C(F)(F)C(F)(F)F)C(F)(F)C(F)(F)C(F)(F)C(F)(F)F [FC-43, perfluorotributylamine]
accumulation in the internal organs (administered to test animals, liver and spleen, resulting in an adverse effect to the animals): accumulate in the internal organs such as liver and spleen for a long period of time

FC1(F)OC(F)(F)C(F)(F)C1(F)F [FX-80, perfluorotetrahydrofuran]
damage to the lung [1]: can cause substantial damage to the lung

FC(OC(F)(F)C(F)(OC(F)(F)C(F)(OC(F)(F)C(F)(OC(F)(F)C(F)(F)C(F)(F)F)C(F)(F)F)C(F)(F)F)C(F)(F)F)C(F)(F)F (stereo not drawn) [Freon E-4, 2-monohydrononacosafluoro-3,6,9,1 2-tetraoxa-5,8,11-trimethylpentadecan]
accumulation in the internal organs (in vivo): accumulate in the internal organs such as liver and spleen for a long period of time
